# Reference: publication doi:10.1101/2025.02.26.640266v1, “Predicting PROTAC-targeted Degradation and Designing Androgen Receptor Degraders with AiPROTAC” (biorxiv, 2025)
# Molecular target: CRBN (human cereblon) (Homo sapiens, UniProt Q96SW2)
# Experiment: HTRF human cereblon binding kit (competition)
structure (smiles),measurement,value
"CC1(C)[C@H](NC(=O)c2ccc(N3CCN(CCCSc4ccc5c(c4)CN(C4CCC(=O)NC4=O)C5=O)CC3)nc2)C(C)(C)[C@H]1Oc1ccc(C#N)c(Cl)c1 (stereo partly shown) [GT19, PROTAC GT19]",IC50,150 nM
